Source: PubChem BioAssay AID977607 (Broad Institute, 2014)
Active and inactive are the calls of the source.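 The calls were made as follows: active = curve reaches 40% activation over neutral controls at an AC40 no higher than the top valid tested concentration; inconclusive = no clear call, values can overlap the other calls; inactive = signal moving opposite to the expected increase, and the rest.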

Test system: INS-1E GLuc insulin secretion reporter, luminescence, 2-3 h
Assay: activators of glucose-dependent insulin secretion, dose response, cell-based, INS-1E, Gaussia luciferase, luminescence, cherry-pick, set 2 (AID 977607)

| Structure (SMILES) | AC40 |
| --- | --- |
| Cc1ccc2nc(-c3ccc(NC(=O)COC(=O)c4ccco4)cc3)sc2c1 | 4.42 µM |
| CN(C(=O)c1ccc2c(c1)SC1=NS(=O)(=O)CCN12)C(c1ccccc1)c1ccccc1 | 0.518 µM |
| CCOc1ncccc1C(=O)Nc1ccc(S(=O)(=O)Nc2nccs2)cc1 | 3.21 µM |
| Cc1ccc(NC(=O)c2oc3ccc(S(=O)(=O)N4CCOCC4)cc3c2C)cc1C | 15.6 µM |
| CC1CCN(S(=O)(=O)c2ccc(C(=O)OCc3ccc4c(c3)OCO4)cc2)CC1 | 13.4 µM |
| COC(=O)c1ccc(OC)c(OC2CCCC2)c1 | 0.254 µM |
| COc1ccc(C2=NN(C(C)=O)C(c3cccs3)C2)cc1OC (centres undefined) | 8.92 µM |
| O=C(NCC1OCCc2ccccc21)c1ccc(NC(=O)c2ccc(Cl)cc2Cl)cc1 (centres undefined) | 20.4 µM |
| COc1ccc(NC(=O)c2sc3nc(N4CCOCC4)c4c(c3c2N)CC(C)(C)OC4)c(OC)c1 | 6.55 µM |
| COc1ccc(CCn2ccc(O)c(Cc3c(F)cccc3Cl)c2=O)cc1OC | 0.0544 µM |
| CCOC(=O)c1c(-c2ccc(-c3ccccc3)cc2)csc1NC(=O)CNCCN(C)C | 8.58 µM |
| CNc1nc(Nc2ccccc2)nc(OCC(F)(F)F)n1 | 0.606 µM |
| O=C(NC1CCCCC1)C(c1ccc(F)cc1)N(Cc1ccccc1)C(=O)CN1C(=O)c2ccccc2S1(=O)=O (centres undefined) | 27.1 µM |
| OC(CNCCC1C=Nc2ccccc21)Cn1c2ccc(Cl)cc2c2cc(Cl)ccc21 (centres undefined) | 4.84 µM |
| C/C(=N\NC(=O)c1cccc(Br)c1)c1ccc(Br)cc1 | 16.6 µM |
| NC(=O)COC(=O)c1ccccc1Oc1ccccc1 | 6.24 µM |
| CNc1ccc2ncc(-c3ccc(OC)c(OC)c3)n2n1 | 7.77 µM |
| CCCc1nc2ccccc2c(=O)n1CC(=O)c1ccc(OC)cc1 | 16.4 µM |
| Cn1c(=O)c(C(=O)NNC(=O)c2cccc(Cl)c2)c(O)c2ccccc21 | 7.02 µM |
| Fc1ccc(/C=N/c2c(-c3ccc(F)cc3)nc3n2CCS3)cc1 | 6.62 µM |
| CCN1CCN(Cc2ccc(NC(=O)c3cccc(-c4ccc5nc(NC(=O)C6CC6)sc5n4)c3)cc2C(F)(F)F)CC1 | 11.4 µM |
| O=C(NCCC1=CCCCC1)C(=O)NCC(c1ccco1)N1CCN(c2ccccc2)CC1 (centres undefined) | 6.33 µM |
| COc1ccc(Br)cc1C(=O)Nc1cc(C)cc(C)c1 | 7.63 µM |
| CC(C)CC(NC(=O)c1ccc(Cl)cc1)C(=O)OCC(=O)c1ccc2c(c1)NC(=O)CO2 (centres undefined) | 2.36 µM |
| CC(C)(C)OC(=O)N[C@@H](Cc1ccccc1)c1nnc(S(=O)(=O)Cc2ccccc2)o1 | 3.69 µM |
| C/C(=N\NC(=O)c1ccc(Cl)c(Cl)c1)c1ccc(Br)s1 | 9.32 µM |
| N#Cc1ccc(-c2ccc([C@@H]3[C@H]4CNC[C@@H]3N4Cc3cc(F)ccc3F)cc2)cc1 | 16 µM |

| Structure (SMILES) | AC40 |
| --- | --- |
| N#CCc1nn(-c2ccccc2)c2ncnc(N)c12 | 11.9 µM |
| COc1ccc(CCNS(=O)(=O)c2cccc(C)c2)cc1OC | 2.46 µM |
| C=CCOc1ccc(-c2nc3c(c(=O)[nH]c(=O)n3CCCC)n2C)cc1Br | 11.1 µM |
| O=C(N/N=C/c1ccc(Cl)cc1Cl)Nc1ccccc1 | 7.74 µM |
| COc1ccc(-c2ccc(C3[C@@H]4CN(Cc5cccc(OC)c5)C[C@H]3N4)cc2)cc1 (some centres undefined) | 2.47 µM |
| O=C(OCC12CC3CC(CC(C3)C1)C2)c1ccc(NCc2cc(O)ccc2O)cc1 | 14.9 µM |
| CNc1nc(-c2ccccc2)[n+](-c2ccc(C)cc2)s1 | 2.16 µM |
| O=C(Nc1ccc(SC(F)F)cc1)c1cccc2nc3ccccc3nc12 | 9.11 µM |
| COc1nc(-c2ccc(Cl)cc2)ccc1-c1noc(-c2ccco2)n1 | 19.5 µM |
| O=C(Nc1nc(-c2ccc(-c3ccccc3)cc2)cs1)C1=COCCO1 | 6.8 µM |
| Fc1cccc(-c2ccc(C3[C@@H]4CN(Cc5ccccc5F)C[C@H]3N4)cc2)c1 (some centres undefined) | 5.28 µM |
| c1ccc(-c2nnc3ccc(N4CCC5(CC4)OCCO5)nn23)cc1 | > 35 µM (inactive) |
| COc1cc(NC(=O)c2cccc(C)c2)ccc1NC(=O)c1cc2ccccc2o1 | 3.24 µM |
| CC(C)CC#Cc1ccc2c(c1)O[C@@H](CN(C)Cc1ccccc1)[C@H](C)CN([C@H](C)CO)S2(=O)=O | 9.77 µM |
| Cc1c(CC(=O)O)c(=O)oc2c(C)c(OCc3ccccc3Br)ccc12 | > 35 µM (inactive) |
| Cc1nc2c(=O)n(C)c(=O)n(C)c2nc1Cl | 25.8 µM |
| COc1ccc(Br)cc1C(=O)Nc1cccc(C)c1 | 11.6 µM |
| CCSc1nnc(NC(=O)c2csc3c2CCCC3)s1 | 2.22 µM |
| CCCCc1c(-c2ccccc2OC)ncn1Cc1ccccc1C | 10.4 µM |
| COc1ccc(CN2CCN(Cc3ccccc3F)CC2)cc1 | > 35 µM (inactive) |
| CCCCCCn1c(-c2cccs2)n[nH]c1=S | > 35 µM (inactive) |
| O=C(COc1ccc2c(c1)OCO2)Nc1ccc2c(c1)oc1ccccc12 | 16.4 µM |
| COc1ccc(C)cc1NCc1cc(=O)oc2cc(-c3ccccc3)c(O)cc12 | 15.8 µM |
| Fc1ccc(-c2ccc(C3[C@@H]4CN(Cc5cccc(F)c5)C[C@H]3N4)cc2)cc1 (some centres undefined) | 5.48 µM |
| COc1ccc(C#Cc2ccc([C@@H]3[C@H](CO)N4CCCCN(Cc5ccccc5F)C[C@@H]34)cc2)cc1 | 6.53 µM |
| CCCCCc1c(Cc2ccccc2)ncn1CCc1ccccc1OC | 12.3 µM |
| CC(C)(C)C1CCc2c(sc(NC(=O)c3cccs3)c2C(N)=O)C1 (centres undefined) | 18.3 µM |

| Structure (SMILES) | AC40 |
| --- | --- |
| Cc1cc(Cl)ccc1Oc1nc(-c2ccccc2)ncc1S(C)(=O)=O | 4.28 µM |
| COc1cc2c(cc1OC)-c1cc(Nc3ccccc3C)nc(=O)n1CC2 | 0.408 µM |
| O=C(Cn1ncc(Cl)c(Cl)c1=O)Nc1ccc2c(c1)OCO2 | 12 µM |
| COc1cc2ccc(CC(=O)O)cc2cc1OC | 2.69 µM |
| CS(=O)(=O)N(Cc1ccc(Cl)cc1)c1ccc(C(=O)NCCC2=CCCCC2)cc1 | 13 µM |
| O=C1Nc2cnc(Cl)nc2Nc2ccccc21 | > 35 µM (inactive) |
| O=C1c2cccnc2C(Nc2cccc(F)c2)N1Cc1ccco1 (centres undefined) | 28.5 µM |
| CN(C)CCCNc1cc(C(C)(C)C)nc2c(-c3ccc(Cl)cc3)cnn12 | 7.08 µM |
| COc1cc2c(cc1OC)[C@H](C)N(C(=O)NCc1ccccc1)CC2 | 8 µM |
| COc1cc2c(cc1OC)-c1cc(Nc3ccccc3Br)nc(=O)n1CC2 | 0.366 µM |
| O=C(NCC1OCCc2ccccc21)c1ccc(NC(=O)c2cccc(Br)c2)cc1 (centres undefined) | 14 µM |
| O=C(Nc1ccc(F)cc1)Nc1cc(OCC(F)(F)F)cc(OCC(F)(F)F)c1 | 7.63 µM |
| COc1ccc(-c2nnn(Cc3nc(N)nc(N4CCOCC4)n3)n2)cc1OC | 1.67 µM |
| Cn1c(=O)oc2cc(S(=O)(=O)N3CCC(C(=O)Nc4ccc(OC(F)(F)F)cc4)CC3)ccc21 | 7.48 µM |
| COc1ccc(Cn2c(=O)c3[nH]cnc3n(-c3ccccc3C)c2=O)cc1 | 10.4 µM |
| CCC(=O)Nc1ccc(Cl)c(NC(=S)NC(=O)COc2ccc(Cl)cc2)c1 | 7.71 µM |
| Cc1ccc2oc(-c3cccc(NC(=O)Cc4cccs4)c3)nc2c1 | 5.62 µM |
| COc1ccc(S(=O)(=O)Nc2ccccc2OC)cc1N=Nc1c(O)[nH]c(=S)[nH]c1=O | 16.4 µM |
| COc1ccc(CC(N)c2csc(NC(=O)Nc3ccc(C(C)C)cc3)n2)cc1 (centres undefined) | 6.81 µM |
| CCOc1ccc(CCNC(=O)Cn2ccc3ccccc3c2=O)cc1OCC | > 35 µM (inactive) |
| CN(C)S(=O)(=O)c1cccc(-n2sc3ccccc3c2=O)c1 | 4.6 µM |
| CCCCNc1cc(Cl)nc(N)n1 | 7.24 µM |
| COc1ccc(-c2nnc3sc(-c4cccs4)nn23)cc1OC | 22 µM |
| O=C(O)c1ccc(-n2nc(-c3ccccc3)c3ccccc3c2=O)cc1 | > 35 µM (inactive) |
| OC[C@@H]1[C@@H](c2ccc(C#CC3CCCC3)cc2)[C@H]2CN(CCC(F)(F)F)CCCCN12 | 8.56 µM |
